# Tests used:
# Assay type in all cases: functional, Homo sapiens
# U2OS [1] = assay: (§1) Here: values are normalized to the negative (DMSO; defined as 0% autophagy induction) and positive (250nM Torin1; mTOR inhibitor; defined as maximal inducer of autophagy = 100%) control compounds and represented as % of autophagy induction. […] The impact of autophagy induction on cells is complex and depends on the affected target. As such, the magnitude of a phenotype may not be equally mirrored in the %-value of autophagy induction and vice versa. The dynamics of the induction may indicate the mode of activation: e.g. activation via phosphorylation or a signaling cascade may occur fast, while activation via transcription factors may take considerably longer. […] Of note, treatment concentrations may be sub-optimal for specific compounds, leading to false negative annotations.; conditions: Culturing Media DMEM, 1 % Penicillin/Streptomycin, 10% Fetal bovin serum Add-On: No, Screening Media Control DMEM, Screening Media Samples DMEM
# U2OS [2] = assay: as §1; conditions: Culturing Media DMEM, 1 % Penicillin/Streptomycin, 10% Fetal bovin serum Add-On: No, Screening Media Control DMEM, Screening Media Samples DMEM; remark: listed apart in the source
# TERT-RPE1 = assay: as §1; conditions: Culturing Media DMEM/F12 (1:1), 1 % Penicillin/Streptomycin, 10% Fetal bovin serum Add-On: No, Screening Media Control DMEM/F12 (1:1), Screening Media Samples DMEM/F12 (1:1)
# [3] = Compound Concentration 0.5 uM, Timepoint 12 hours
# [4] = Compound Concentration 0.5 uM, Timepoint 24 hours
# [5] = Compound Concentration 0.5 uM, Timepoint 36 hours
# [6] = Compound Concentration 0.5 uM, Timepoint 60 hours
# [7] = Compound Concentration 2 uM, Timepoint 12 hours
# [8] = Compound Concentration 2 uM, Timepoint 24 hours
# [9] = Compound Concentration 2 uM, Timepoint 36 hours
# [10] = Compound Concentration 2 uM, Timepoint 60 hours
# [11] = Compound Concentration 10 uM, Timepoint 12 hours
# [12] = Compound Concentration 10 uM, Timepoint 24 hours
# [13] = Compound Concentration 10 uM, Timepoint 36 hours
# [14] = Compound Concentration 10 uM, Timepoint 60 hours
smiles,measurement,setting,value
COc1ccc(S(=O)(=O)c2cc(OC)ccc2S(=O)(=O)c2ccc([C@H](C)NS(C)(=O)=O)cc2)cc1,autophagy induction,U2OS [1]; [3],5.054%
same,autophagy induction,U2OS [1]; [4],-4.288%
same,autophagy induction,U2OS [1]; [5],-4.858%
same,autophagy induction,U2OS [1]; [6],-2.8349%
same,autophagy induction,U2OS [1]; [7],5.036%
same,autophagy induction,U2OS [1]; [8],-1.126%
same,autophagy induction,U2OS [1]; [9],2.146%
same,autophagy induction,U2OS [1]; [10],-5.198%
same,autophagy induction,U2OS [1]; [11],5.742%
same,autophagy induction,U2OS [1]; [12],6.2878%
same,autophagy induction,U2OS [1]; [13],4.231%
same,autophagy induction,U2OS [1]; [14],-3.951%
same,autophagy induction,U2OS [2]; [3],5.1145%
same,autophagy induction,U2OS [2]; [4],1.212%
same,autophagy induction,U2OS [2]; [5],0.9926%
same,autophagy induction,U2OS [2]; [6],0.6082%
same,autophagy induction,U2OS [2]; [7],2.687%
same,autophagy induction,U2OS [2]; [8],1.009%
same,autophagy induction,U2OS [2]; [9],1.125%
same,autophagy induction,U2OS [2]; [10],0.5012%
same,autophagy induction,U2OS [2]; [11],-3.021%
same,autophagy induction,U2OS [2]; [12],-0.6189%
same,autophagy induction,U2OS [2]; [13],-0.5987%
same,autophagy induction,U2OS [2]; [14],-0.1479%
same,autophagy induction,TERT-RPE1; [3],-6.482%
same,autophagy induction,TERT-RPE1; [4],-9.039%
same,autophagy induction,TERT-RPE1; [5],-9.847%
same,autophagy induction,TERT-RPE1; [6],-11.3186%
same,autophagy induction,TERT-RPE1; [7],-6.676%
same,autophagy induction,TERT-RPE1; [8],-10.1921%
same,autophagy induction,TERT-RPE1; [9],-12.367%
same,autophagy induction,TERT-RPE1; [10],-10.4808%
same,autophagy induction,TERT-RPE1; [11],-5.338%
same,autophagy induction,TERT-RPE1; [12],-8.134%
same,autophagy induction,TERT-RPE1; [13],-7.872%
same,autophagy induction,TERT-RPE1; [14],-5.175%
C[C@H](CO)Nc1nc(SCc2cccc(Cl)c2F)nc2[nH]c(=O)sc12,autophagy induction,U2OS [1]; [3],-2.252%
same,autophagy induction,U2OS [1]; [4],-5.227%
same,autophagy induction,U2OS [1]; [5],-4.361%
same,autophagy induction,U2OS [1]; [6],0.5148%
same,autophagy induction,U2OS [1]; [7],-3.135%
same,autophagy induction,U2OS [1]; [8],-6.665%
same,autophagy induction,U2OS [1]; [9],-3.053%
same,autophagy induction,U2OS [1]; [10],-3.815%
same,autophagy induction,U2OS [1]; [11],-3.826%
same,autophagy induction,U2OS [1]; [12],1.119%
same,autophagy induction,U2OS [1]; [13],5.199%
same,autophagy induction,U2OS [1]; [14],9.3581%
same,autophagy induction,U2OS [2]; [3],5.635%
same,autophagy induction,U2OS [2]; [4],-1.036%
same,autophagy induction,U2OS [2]; [5],-0.662%
same,autophagy induction,U2OS [2]; [6],0.3997%
same,autophagy induction,U2OS [2]; [7],-11.0736%
same,autophagy induction,U2OS [2]; [8],-4.995%
same,autophagy induction,U2OS [2]; [9],-2.19%
same,autophagy induction,U2OS [2]; [10],-0.5002%
same,autophagy induction,U2OS [2]; [11],9.288%
same,autophagy induction,U2OS [2]; [12],6.328%
same,autophagy induction,U2OS [2]; [13],3.708%
same,autophagy induction,U2OS [2]; [14],1.649%
same,autophagy induction,TERT-RPE1; [3],-10.6276%
same,autophagy induction,TERT-RPE1; [4],-12.9518%
same,autophagy induction,TERT-RPE1; [5],-15.2456%
same,autophagy induction,TERT-RPE1; [6],-20.3989%
same,autophagy induction,TERT-RPE1; [7],-5.728%
same,autophagy induction,TERT-RPE1; [8],-8.929%
same,autophagy induction,TERT-RPE1; [9],-11.3534%
same,autophagy induction,TERT-RPE1; [10],-17.566%
same,autophagy induction,TERT-RPE1; [11],-4.7585%
same,autophagy induction,TERT-RPE1; [12],-7.211%
same,autophagy induction,TERT-RPE1; [13],-11.193%
same,autophagy induction,TERT-RPE1; [14],-13.8782%
O=C(Cc1ccccc1)Nc1nc2ccc(Cl)cc2c2nc(-c3ccco3)nn12,autophagy induction,U2OS [1]; [3],4.486%
same,autophagy induction,U2OS [1]; [4],1.051%
same,autophagy induction,U2OS [1]; [5],3.966%
same,autophagy induction,U2OS [1]; [6],7.125%
same,autophagy induction,U2OS [1]; [7],-5.124%
same,autophagy induction,U2OS [1]; [8],-1.574%
same,autophagy induction,U2OS [1]; [9],-4.263%
same,autophagy induction,U2OS [1]; [10],4.935%
same,autophagy induction,U2OS [1]; [11],-2.171%
same,autophagy induction,U2OS [1]; [12],-3.2492%
same,autophagy induction,U2OS [1]; [13],0.6441%
same,autophagy induction,U2OS [1]; [14],10.7185%
same,autophagy induction,U2OS [2]; [3],-1.429%
same,autophagy induction,U2OS [2]; [4],-4.076%
same,autophagy induction,U2OS [2]; [5],-2.306%
same,autophagy induction,U2OS [2]; [6],0.1335%
same,autophagy induction,U2OS [2]; [7],-7.203%
same,autophagy induction,U2OS [2]; [8],-1.219%
same,autophagy induction,U2OS [2]; [9],-0.343%
same,autophagy induction,U2OS [2]; [10],-0.2104%
same,autophagy induction,U2OS [2]; [11],-51.1859%
same,autophagy induction,U2OS [2]; [12],-16.9004%
same,autophagy induction,U2OS [2]; [13],-8.178%
same,autophagy induction,U2OS [2]; [14],-3.011%
same,autophagy induction,TERT-RPE1; [3],-7.39%
same,autophagy induction,TERT-RPE1; [4],-10.3716%
same,autophagy induction,TERT-RPE1; [5],-15.7815%
same,autophagy induction,TERT-RPE1; [6],-15.2628%
same,autophagy induction,TERT-RPE1; [7],-6.9816%
same,autophagy induction,TERT-RPE1; [8],-7.632%
same,autophagy induction,TERT-RPE1; [9],-7.871%
same,autophagy induction,TERT-RPE1; [10],-12.6626%
same,autophagy induction,TERT-RPE1; [11],-9.4005%
same,autophagy induction,TERT-RPE1; [12],10.615%
same,autophagy induction,TERT-RPE1; [13],24.2695%
same,autophagy induction,TERT-RPE1; [14],38.8225%
